Patent US8202897B2, “Inhibitors of glutaminyl cyclases” (Probiodrug AG, priority 2007, dated 2012)

How the values were obtained:
[1] = molecular target: glutaminyl cyclase (QC) (Homo sapiens, UniProt Q16769); assay: QC inhibitor assay (fluorometric/spectrophotometric QC activity assay with inhibitor added)
Chain of glutaminyl cyclase (QC) (Q16769 29-361): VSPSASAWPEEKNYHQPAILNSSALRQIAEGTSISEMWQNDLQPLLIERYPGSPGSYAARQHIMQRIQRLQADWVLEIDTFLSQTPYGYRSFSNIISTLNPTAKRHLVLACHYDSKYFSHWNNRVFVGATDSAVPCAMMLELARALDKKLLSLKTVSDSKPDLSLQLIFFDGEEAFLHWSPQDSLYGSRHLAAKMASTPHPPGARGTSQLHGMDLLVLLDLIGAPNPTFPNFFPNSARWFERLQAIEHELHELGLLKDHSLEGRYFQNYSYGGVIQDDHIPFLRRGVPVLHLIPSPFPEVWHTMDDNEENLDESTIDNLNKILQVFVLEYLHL
Method: All measurements were performed with a BioAssay Reader HTS-7000Plus for microplates (Perkin Elmer) at 30° C. QC activity was evaluated fluorometrically using H-Gln-βNA. The samples consisted of 0.2 mM fluorogenic substrate, 0.25 U pyroglutamyl aminopeptidase (Unizyme, Hørsholm, Denmark) in 0.2 M Tris/HCl, pH 8.0 containing 20 mM EDTA and an appropriately diluted aliquot of QC in a final volume of 250 μl. Excitation/emission wavelengths were 320/410 nm. The assay reactions were initiated by addition of glutaminyl cyclase. QC activity was determined from a standard curve of β-naphthylamine under assay conditions. One unit is defined as the amount of QC catalyzing the formation of 1 μmol pGlu-βNA from H-Gln-βNA per minute under the described conditions.
In a second fluorometric assay, QC was activity determined using H-Gln-AMC as substrate. Reactions were carried out at 30° C. utilizing the NOVOStar reader for microplates (BMG labtechnologies). The samples consisted of varying concentrations of the fluorogenic substrate, 0.1 U pyroglutamyl aminopeptidase (Qiagen) in 0.05 M Tris/HCl, pH 8.0 containing 5 mM EDTA and an appropriately diluted aliquot of QC in a final volume of 250 μl. Excitation/emission wavelengths were 380/460 nm. The assay reactions were initiated by addition of glutaminyl cyclase. […] The kinetic data were evaluated using GraFit software.
Samples consisted of the respective QC substrate, 0.3 mM NADH, 14 mM α-Ketoglutaric acid and 30 U/ml glutamate dehydrogenase in a final volume of 250 μl. […] All samples were measured at 30° C., using either the [sequence]luor Plus or the Sunrise (both from TECAN) reader for microplates. Kinetic data was evaluated using GraFit software.
For inhibitor testing, the sample composition was the same as described above, except of the putative inhibitory compound added. For a rapid test of QC-inhibition, samples contained 4 mM of the respective inhibitor and a substrate concentration at 1 KM. For detailed investigations of the inhibition and determination of Ki-values, influence of the inhibitor on the auxiliary enzymes was investigated first. […] The inhibitory constant was evaluated by fitting the set of progress curves to the general equation for competitive inhibition using GraFit software.

| IC50 [1] | Ki [1] | melting point | SMILES |
| --- | --- | --- | --- |
| 13.2 µM | 2.19 µM |  | CCCCN/C(=C/[N+](=O)[O-])NCCCn1ccnc1 [Example 1, N-(3-(1H-imidazol-1-yl)propyl)-N-butyl-2-nitroethene-1.1-diamine] |
| 7.93 µM | 0.95 µM |  | O=[N+]([O-])/C=C(\NCCCn1ccnc1)Nc1ccc2c(c1)OCO2 [Example 9, N-(1-(3-(1H-imidazol-1-yl)propylamino)-2-nitrovinyl)benzo[d][1.3]dioxol-5-amine] |
| 8.89 µM | 0.92 µM |  | COc1ccc(N/C(=C/[N+](=O)[O-])NCCCn2ccnc2)c(OC)c1 [Example 10, N-(1-(3-(1H-imidazol-1-yl)propylamino)-2-nitrovinyl)-2.4-dimethoxy-benzenamine] |
| 6.41 µM | 0.74 µM | 41 to 43 °C | COc1cc(N/C(=C/[N+](=O)[O-])NCCCn2ccnc2)cc(OC)c1OC [Example 11, N-(1-(3-(1H-imidazol-1-yl)propylamino)-2-nitrovinyl)-3.4.5-trimethoxy-benzenamine] |
